Source: US11998551B2, “Treatment of mitochondrial diseases” (FUNDACIÓ HOSPITAL UNIVERSITARI VALL D'HEBRON-INSTITUT DE …, priority 2015, dated 2024)

Test system: quiescent fibroblasts from healthy controls
Experiment: mtDNA copy number (quantitative PCR) after EtBr-forced depletion in quiescent fibroblasts from healthy controls
Format: cell-based, human
Settings: control cells, 14 days exposure to 5 ng/ml EtBr
Procedure: Primary cultured fibroblasts were obtained from skin biopsies of patients 1-3 and 4 healthy donors. All subjects gave informed consent in accordance with our Institutional Review Boards and the Declaration of Helsinki.
Cells were seeded in 6-well plates of 9.5 cm^2 in Dulbecco's modified Eagle's medium (DMEM) with 4.5 g/L glucose, supplemented with 2 mM L-glutamine, 100 U/ml penicillin and streptomycin, and 10% dialyzed Fetal Bovine Serum (FBS) (Invitrogen) in a humidified incubator at 37° C. and 5% CO2. After tight confluence was reached, FBS was reduced to 0.1% to induce quiescence and simultaneous treatment with 5 ng/ml of EtBr (ethidium bromide, Merck) was initiated (day 0, t0). Cell media was replaced with the same treatment every 2-3 days for two weeks. At day 14 (t14) EtBr was withdrawn from cell media and the treatment of a set of all cells was initiated with 200 μM of all four deoxynucleosides (dNs): dAdo (deoxyadenosine, Sigma), dCtd (deoxycytidine, Sigma), dGuo (deoxyguanosine, Sigma), dThd (deoxythymidine, Sigma) and 5 μM EHNA (Sigma). A set of cells was left untreated and all parameters were monitored in parallel. Cell media was replaced with the same treatment every 2-3 days for 12 additional days. At days 16 or 17 media were collected and stored at −20° C. until further use. […]
mtDNA copy number was assessed by quantitative PCR as previously described. […]

CC[n+]1c(-c2ccccc2)c2cc(N)ccc2c2ccc(N)cc21 [EtBr, ethidium bromide]
averaged percentage of mtDNA residual levels ± SE: 39.68±6.6%
